# Source: patent US20140221207A1, “ISOLATED BACTERIAL STRAIN OF THE GENUS BURKHOLDERIA AND PESTICIDAL METABOLITES THEREFROM- FORMULATIONS AND USES” (MARRONE BIO INNOVATIONS, INC., priority 2011, published 2014)
# Values joined by “and” are separate entries in the source; they are usually repeats but may differ in a detail not shown here. Equal values may be shown once. Read-outs that look alike come from different tables or passages of the source.
# Key:
# Burkholderia A396 = format: cell-based, Burkholderia sp. A396; details: 72-hour incubation at 25° C
# Protocol: Antibiotic susceptibility of Burkholderia A396 is tested using antibiotic disks on Muller-Hinton medium as described in PML Microbiological's technical data sheet #535.
# B. cepacia complex = details: 2,621 strains in B. cepacia complex; cited from earlier work
# [1] = system: Chlamydomonas reinhardtii; assay: Control of Chlamydomonas reinhardtii by purified compounds, fluorescence at 680 nm; format: cell-based; details: 72 hours
# Protocol: Purified compounds from Burkholderia sp. fermentation broth was tested for algaicidal activity against Chlamydomonas reinhardtii. An increasing volume of the purified compounds (20 mg/mL in ethanol) was added to a clear 48 well polystyrene plate with 750 micro liters of the specified algae growing. Each treatment was done in two replicates and the solvent used as a negative control. The plate was closed with a lid and incubated for 72 hours under constant light at room temperature. After 72 hours the fluorescence (at 680 nm) of the suspension in each well was measured using a SpectraMax M2 plate reader, and the reduction in fluorescence compared with the negative control was converted into percent control of algal growth. Each sample was visually compared to the negative control; a well that was visually clearer than the negative control was scored as active. […] Tests were run in two replicates and %. Control was calculated as a reduction of fluorescence at 680 nm compared with the negative control. Each sample was visually compared to the negative control; a well that was visually clearer than the negative control was scored as active.
# Lygus hesperus = assay: 12 well plate treated green beans bioassay, Lygus hesperus late 2nd/early 3rd instar; format: in vivo; details: green beans dipped in 0.25 mg/mL, scored at 24, 48 and 120 hours
# Protocol: The insecticidal activity of the four compounds, templamide A, templamide B, FR901465 & FR901228 isolated from Burkholderia were tested in a laboratory assay using a 12 well plate with treated green beans bioassay system. The compound was dissolved in 100% ethanol to concentrations of […] and 500 μL of this sample was added to 3.5 mL of water to make a total volume of 4 mL containing 0.25 mg/mL concentration of the compound. Green beans were washed earlier in bleach solution and then sat in water to rinse. Beans were dried before using and then were cut with scissors to fit into wells of 12-well plate. With the help of forceps the beans were dunked into a 15 mL plastic falcon tube containing each treatment and then submerged in treatment for exactly one min. one bean part was put into each well and then individual late 2nd/early 3rd instar Lygus hesperus, were placed in wells with help of brush. Plate sealer was used to cover tray and hole poked into the plate sealer for aeration. The numbers of Lygus/well were counted and plates were placed on brench top. Larvae were scored at 24, 48 and 120 hours after application. […] The positive control used in this testing was Avid (Avemectin) at the rate of 13 μL/10 mL.
# [2] = system: Two Spotted Spidermite (TSM); assay: Control of two spotted spidermite (TSM) in strawberry, field data; format: in vivo; details: 6 oz./acre
# Protocol: The efficacies of five traditional chemistry-derived and MBI 206 were evaluated for TSM control under field conditions. ‘Strawberry Festival’ transplants were set in the field in plastic mulched beds, 13 inches high and 27 inches across the top, and with 4 ft bed spacing. Overhead irrigation was applied for 10 days after setting to aid in establishment of the transplants. Trickle irrigation was used for the remainder of the experiment. Each 12.5-ft. plot consisted of 20 plants in two ten-plant rows per bed. Plots were infested from a laboratory colony in four sessions with 10 to 20 motile TSM, per plant. Each session accomplished the infestation of one block of the experiment. The experiment consisted of treatments of various rates and schedules of application of miticides, some combined with an adjuvant, and a non-treated check. Treatments were replicated four times in a RCB design. Savey and Acramite treatments were applied before TSM densities reached threshold levels (6 January); the remainder of the treatment programs began 2 wks later. Treatments were applied using a hand-held sprayer with a spray wand outfitted with a nozzle containing a 45-degree core and a number four disc.
# The sprayer was pressurized by CO2, to 40 psi, and calibrated to deliver 100 gal per acre. Pre-treatment samples were taken on Day 1 and sampling continued weekly through 2 wks after the last application of treatments. Samples consisted of ten randomly selected leaflets per plot and were collected from the middle one-third stratum of the plants. Samples were transported to the laboratory where motile and egg TSM were brushed from the leaflets onto rotating sticky discs and counted on 1/10 of the disc surface to estimate average numbers per leaflet. Distinctions could not be made between viable and non-viable eggs, thus total eggs were recorded.
# [3] = 5 μL of sample (20 mg/mL in ethanol) per 750 μL of algae
# [4] = 5 μL of sample per 750 μL of algae
# [5] = 11 μL of sample (20 mg/mL in ethanol) per 750 μL of algae
# [6] = 11 μL of sample per 750 μL of algae
# [7] = 22.5 μL of sample (20 mg/mL in ethanol) per 750 μL of algae
# [8] = 22.5 μL of sample per 750 μL of algae, well visually clearer than negative control scored as active
compound,measurement,setting,value
CC1(C)S[C@@H]2[C@H](NC(=O)[C@H](N)c3ccccc3)C(=O)N2[C@H]1C(=O)O [Ampicillin],Susceptible,Burkholderia A396; disk 10 μg,−
CO/N=C(\C(=O)N[C@@H]1C(=O)N2C(C(=O)O)=C(COC(N)=O)CS[C@H]12)c1ccco1 [Cefuroxime],Susceptible,Burkholderia A396; disk 30 μg,−
O=C(N[C@H](CO)[C@H](O)c1ccc([N+](=O)[O-])cc1)C(Cl)Cl [Chloramphenicol],Susceptible,Burkholderia A396; disk 30 μg,++
same,share of strains susceptible,B. cepacia complex,15%
O=C(O)c1cn(C2CC2)c2cc(N3CCNCC3)c(F)cc2c1=O [Ciprofloxacin],Susceptible,Burkholderia A396; disk 5 μg,++
same,share of strains susceptible,B. cepacia complex,5%
CC[C@H]1OC(=O)[C@H](C)[C@@H](O[C@H]2C[C@@](C)(OC)[C@@H](O)[C@H](C)O2)[C@H](C)[C@@H](O[C@@H]2O[C@H](C)C[C@H](N(C)C)[C@H]2O)[C@](C)(O)C[C@@H](C)C(=O)[C@H](C)[C@@H](O)[C@]1(C)O [Erythromycin],Susceptible,Burkholderia A396; disk 15 μg,−
C[C@@H](O)[C@H]1C(=O)N2C(C(=O)O)=C(SCCN=CN)C[C@H]12 [Imipenem],Susceptible,Burkholderia A396; disk 10 μg,+++
NC[C@H]1O[C@H](O[C@H]2[C@H](O)[C@@H](O[C@H]3O[C@H](CO)[C@@H](O)[C@H](N)[C@H]3O)[C@H](N)C[C@@H]2N)[C@H](O)[C@@H](O)[C@@H]1O [Kanamycin],Susceptible,Burkholderia A396; disk 30 μg,+++
CN(C)[C@@H]1C(O)=C(C(N)=O)C(=O)[C@@]2(O)C(O)=C3C(=O)c4c(O)cccc4[C@@](C)(O)[C@H]3[C@H](O)[C@@H]12 [Oxytetracycline],Susceptible,Burkholderia A396; disk 30 μg,−
CCN1CCN(C(=O)N[C@@H](C(=O)N[C@@H]2C(=O)N3[C@@H]2SC(C)(C)[C@@H]3C(=O)O)c2ccccc2)C(=O)C1=O [Piperacillin],Susceptible,Burkholderia A396; disk 100 μg,+++
[H]/N=C(/N)N[C@H]1[C@H](O)[C@@H](O)[C@H](O[C@@H]2O[C@@H](C)[C@](O)(C=O)[C@H]2O[C@@H]2O[C@@H](CO)[C@H](O)[C@@H](O)[C@@H]2NC)[C@@H](N/C(N)=N\[H])[C@@H]1O [Streptomycin],Susceptible,Burkholderia A396; disk 10 μg,−
CCC(=O)OC(C)/C=C\C(=O)NC1CC(C)C(C/C=C(C)/C=C/C2OC(C)(O)C(O)C(O)(CO)C2O)OC1C (centres unmarked) [Templamide A],% Control,[1]; [3],−67.61%
same,Visual,[1]; [4],Not Active
same,% Control,[1]; [5],−21.16%
same,Visual,[1]; [6],Not Active
same,% Control,[1]; [7],−151.6%
same,Visual,[1]; [8],Not Active
same,mortality,Lygus hesperus,inactive
CCC(=O)OC(C)/C=C\C(=O)NC1CC(C)C(C/C=C(C)/C=C/C2OC(C)(O)C(O)C3(CO3)C2O)OC1C (centres unmarked) [Templamide B],% Control,[1]; [3],95.05%
same,Visual,[1]; [4],Active
same,% Control,[1]; [5],99.34%
same,Visual,[1]; [6],Active
same,% Control,[1]; [7],98.3%
same,Visual,[1]; [8],Active
same,mortality at 250 µg/mL,Lygus hesperus; Lygus hesperus,69.2%
"COC(=O)c1nc(CC(C)C)oc1-c1c[nH]c2ccccc12 [Templazole A, templazole A]",% Control,[1]; [3],99.18% and 98.69%
same,Visual,[1]; [4],Active
same,% Control,[1]; [5],98.73% and 98.31%
same,Visual,[1]; [6],Active
same,% Control,[1]; [7],98.15% and 95.71%
same,Visual,[1]; [8],Active
CN(C)[C@@H]1C(O)=C(C(N)=O)C(=O)[C@@]2(O)C(O)=C3C(=O)c4c(O)cccc4[C@@](C)(O)[C@H]3C[C@@H]12 [Tetracycline],Susceptible,Burkholderia A396; disk 30 μg,−
C[C@@H]1[C@@H](c2ccc(Cl)cc2)SC(=O)N1C(=O)NC1CCCCC1 [hexythiazox],No. egg TSM/leaflet,[2]; Day 1 (pre-treatment sample),2
same,No. egg TSM/leaflet,[2]; Day 9,8.5
same,No. egg TSM/leaflet,[2]; Day 16,15
same,No. egg TSM/leaflet,[2]; Day 22,17
same,No. egg TSM/leaflet,[2]; Day 30,22
same,No. egg TSM/leaflet,[2]; Day 37,71.5
same,No. egg TSM/leaflet,[2]; Day 44,128.5
same,No. egg TSM/leaflet,[2]; Day 52,281.5
same,No. egg TSM/leaflet,[2]; Day 58,393.5
Gentamicin,Susceptible,Burkholderia A396; disk 10 μg,−
Penicillin,Susceptible,Burkholderia A396; disk 10 μg,−
templazole B,% Control,[1]; [3],−102.1%
same,Visual,[1]; [4],Not Active
same,% Control,[1]; [5],52.95%
same,Visual,[1]; [6],Not Active
same,% Control,[1]; [7],−30.79%
same,Visual,[1]; [8],Not Active
